In patent US20090047246A1, “NOVEL INHIBITORS OF HEPATITIS C VIRUS REPLICATION” (InterMune, Inc., priority 2007, published 2009):

How the values were obtained:
[1] = tested on: HCV NS3/4a protease; test: HCV NS3/4a protease activity, effect of additives on reaction rate (Assay Example 1); assay type: biochemical, HCV genotype 1b-K2040; settings: 0.5 μM FRET substrate; base buffer 50 mM Tris-HCl pH 7.5, 15% glycerol; additive at the concentrations tested
Procedure: In order to identify reaction conditions that give high levels of HCV NS3/4a protease activity, several additives were analyzed to determine their effect on reaction rate. The base buffer used was 50 mM Tris-HCl, pH 7.5 containing 15% glycerol. The FRET-based assay substrate used (sequence: Ac-DE-Dap(QXL520)-EE-Abu-ψ-[COO]-AS-Cys(5-FAMsp)-NH2) was obtained from Anaspec, Inc. (San Jose, Calif.). The NS4a surrogate peptide used (KGSVVIVGRIILSGRK) was obtained from Midwest Biotech (Fishers, Ind.). The NS3 enzyme used was the benchmark wild-type full length enzyme derived from HCV genotype 1b-K2040. The reaction rate for the NS3 catalyzed hydrolysis of 0.5 μM substrate in base buffer was used as a reference.

[2] = molecular target: NS3 Helicase (Hepatitis C virus genotype 1b, UniProt P26663); test: Activity of NS3 Helicase in Presence of Detergent with or without LDAO (Table A); assay type: biochemical; settings: plus LDAO 0.6 mM; for Activity: control = 100
NS3 Helicase, sequence (P26663 1027-1657): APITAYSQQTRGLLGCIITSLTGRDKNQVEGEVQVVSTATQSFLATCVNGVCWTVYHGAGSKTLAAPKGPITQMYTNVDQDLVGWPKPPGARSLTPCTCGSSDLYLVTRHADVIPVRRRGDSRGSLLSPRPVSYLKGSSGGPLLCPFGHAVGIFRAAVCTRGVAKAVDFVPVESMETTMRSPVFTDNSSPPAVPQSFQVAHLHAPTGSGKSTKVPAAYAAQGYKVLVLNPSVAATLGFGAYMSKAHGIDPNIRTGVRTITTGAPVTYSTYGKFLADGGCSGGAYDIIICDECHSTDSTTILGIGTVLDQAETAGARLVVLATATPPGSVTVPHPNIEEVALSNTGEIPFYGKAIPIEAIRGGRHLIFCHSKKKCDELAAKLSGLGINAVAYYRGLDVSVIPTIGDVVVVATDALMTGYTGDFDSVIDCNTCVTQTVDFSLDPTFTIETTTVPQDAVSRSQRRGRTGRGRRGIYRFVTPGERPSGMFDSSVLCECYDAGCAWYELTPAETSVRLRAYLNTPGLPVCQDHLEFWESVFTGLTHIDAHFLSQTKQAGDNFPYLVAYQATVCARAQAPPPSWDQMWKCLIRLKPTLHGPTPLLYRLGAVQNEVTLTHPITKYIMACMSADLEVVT
Procedure: In another embodiment, at least one detergent is added to a solution containing NS3 to improve the helicase activity. In some embodiments, the detergent is selected from the group consisting of LDAO, Tween 20, Triton X100, Pluronic F127, CHAPS, β-octyl glucoside, laurylmaltoside, N-lauroylsarcosine, and hexadecyltrimethylammonium bromide. In a preferred embodiment, LDAO is added. In a more preferred embodiment, at least one additional detergent in added to the solution containing NS3 and LDAO. In some embodiments, the additional detergent(s) is/are selected from the group consisting of Tween 20, Triton X100, Pluronic F127, CHAPS, β-octyl glucoside, laurylmaltoside, N-lauroylsarcosine, and hexadecyltrimethylammonium bromide. Table A represents the helicase activity of NS3 in the presence of LDAO and at least one additional detergent; and, in the absence of LDAO and the presence of at least one other detergent.

[3] = tested on: T1, NS4a surrogate peptide
T1 sequence: KGSVVIVGRIILSGRK

Row | Compound | Conclusion (effect of additive on NS3/4a protease reaction rate) [1] | Slope ([2]; detergent 0.020%) [mP/min] | Activity ([2]; detergent 0.020%) [%] | Slope ([2]; detergent 0.075%) [mP/min] | Activity ([2]; detergent 0.075%) [%] | NS3/4a protease activity (reaction rate of NS3 catalyzed hydrolysis of 0.5 µM FRET substrate) [3]
1 | C[C@H](CCC(=O)NCCC[N+](C)(C)CCCS(=O)(=O)[O-])[C@H]1CC[C@H]2[C@@H]3[C@H](O)C[C@@H]4C[C@H](O)CC[C@]4(C)[C@H]3C[C@H](O)[C@]12C [CHAPS] | CHAPS at 2 mM increased activity | −0.77 | 126 | −1.16 | 190 | 
2 | NS3 enzyme, benchmark wild-type full length enzyme derived from HCV genotype 1b-K2040 |  |  |  |  |  | Best activity at 25 and 2500 µM
